Measurements published in EP4458412A1, “NOVEL PHOSPHOANTIGEN PRODRUG COMPOUND AND USE THEREOF” (University College Cardiff Consultants, Ltd., priority 2023, dated 2024).

Key:
Vγ9/Vδ2 T cells = settings: previously reported potencies (Hsiao 2014; Reichenberg 2003); cited from earlier work
human Vγ9/Vδ2^+ T cells = assay: Activation of human Vγ9/Vδ2+ T cells in PBMCs (CD69/CD25 upregulation, flow cytometry); format: cell-based; settings: for EC50: PBMCs incubated overnight, CD69+ CD25+ Vγ9/Vδ2 T cells, 10pM to 100µM; for activation of Vγ9/Vδ2 T cells at the highest concentration studied: 100 µM compared with 10 µM; for activation of Vγ9/Vδ2 T cells (rank in words): across the two series 9a-d and 14a-d, in vitro
Experimental: General: Healthy donor peripheral blood mononuclear cells (PBMCs) were harvested as described in Morita et al. 2007. In particular, blood was obtained in the presence of a mixture of heparin and ethylene diamino tetra acetic acid (EDTA) as anticoagulants (2 U/ml heparin, 1.5 mM EDTA) from consented healthy donors (approved by the NRES Committee West Midlands-Solihull Ethical Board; REC reference 14/WM/1254). Blood was then layered on a density gradient medium, lymphoprep (Stem Cell Technologies) and Peripheral blood mononuclear cells (PBMCs) were purified by gradient centrifugation. The cells were washed 2 times with Phosphate Buffered Saline (PBS), then resuspended in RPMI-1640 media supplemented with 2 mM L-glutamine, 25 mM HEPES, 1% sodium pyruvate, 50 µg/ml penicillin/streptomycin (Invitrogen) and 10% foetal calf serum.
(§1) To assess the activation of Vy9/V62 T cells, PBMCs were seeded into U-bottom tissue culture-treated 96-well plates at a cell density of 500,000 cells per well. […] The cells were incubated at 37°C/5%CO2 overnight, and stained by flow cytometry for the following markers: viability (Zombie Aqua 1:400), CD3 (BV421 1:100), CD8 (BV650 1:200), Vγ9 (PEcy5 1:400), V62 (APC 1:200), CD69 (PE 1:25), CD25 (FITC 1:100). The samples were acquired via LSRFortessa X20 (BD Biosciences), and the data obtained were analysed using FlowJo v10 and GraphPad Prism v9 software.
Peripheral blood γδ T-cells lack appreciable levels of surface CD69 or CD25 under steady state conditions, but T-cell receptor (TCR) stimulation upregulates both T-cell activation markers within 72 hours. PAg responsive Vy9/V62 T-cells were then distinguished by TCR Yγ9 and V62 expression and assessed for the upregulation CD69 and CD25. […]

carboxypeptidase Y = biological target: T1, carboxypeptidase Y (Saccharomyces cerevisiae, UniProt P00729); assay: Carboxypeptidase Y assay (in vitro metabolism, 31P NMR); format: in vitro ADME; settings: recombinant carboxypeptidase Y, 37 °C
T1 sequence (P00729 112-532): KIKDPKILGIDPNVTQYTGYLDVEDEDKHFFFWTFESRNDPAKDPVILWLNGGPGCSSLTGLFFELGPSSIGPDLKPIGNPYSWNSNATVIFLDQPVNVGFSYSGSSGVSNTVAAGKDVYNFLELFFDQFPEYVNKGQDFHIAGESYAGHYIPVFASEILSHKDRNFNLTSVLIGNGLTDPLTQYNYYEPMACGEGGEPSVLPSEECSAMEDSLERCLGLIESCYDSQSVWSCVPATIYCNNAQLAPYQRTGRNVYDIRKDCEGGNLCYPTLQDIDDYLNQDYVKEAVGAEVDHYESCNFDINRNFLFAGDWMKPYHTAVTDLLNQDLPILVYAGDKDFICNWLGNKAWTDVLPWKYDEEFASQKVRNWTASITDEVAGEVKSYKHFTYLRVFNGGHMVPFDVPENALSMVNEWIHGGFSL
Experimental: The in vitro metabolism of the phosphonodiamidate ProPAgens according to the present invention was investigated in a carboxypeptidase Y assay.
The carboxypeptidase Y assay was carried out as previously reported by Mehellou et al. 2020, McGuigan et al. 2018 and McGuigan et al. 2014. 5.0 mg of the phosphonodiamidate ProPAgen 9b was dissolved in 0.2 mL of acetone, and 0.4 mL of Trizma buffer (pH 7.4) was added followed by 0.5 mg carboxypeptidase Y in 0.2 ml Trizma buffer (pH 7.4). The phosphonodiamidate ProPAgen 9b was incubated with recombinant carboxypeptidase Y at 37 °C and monitored the reaction by ^31P-NMR for 12 h. Recorded data were processed and analysed with Bruker Topspin 2.1 software.

[1] = Human serum stability monitored by 31P NMR; format: in vitro ADME; settings: 37 °C, 7.5 h
Experimental: This experiment was carried out as previously reported in Mehellou et al. 2020 and Slusarczyk, M.; Ferrari, V.; Serpi, M.; Gönczy, B.; Balzarini, J.; McGuigan, C; Symmetrical Diamidates as a Class of Phosphate Prodrugs to Deliver the 5'-Monophosphate Forms of Anticancer Nucleoside Analogues; ChemMedChem 2018, 13, 2305-2316 (hereinafter "McGuigan et al. 2018"), as well as Slusarczyk, M.; Lopez, M. H.; Balzarini, J.; Mason, M.; Jiang, W. G.; Blagden, S.; Thompson, E.; Ghazaly, E.; McGuigan, C. Application of ProTide technology to gemcitabine: a successful approach to overcome the key cancer resistance mechanisms leads to a new agent (NUC-1031) in clinical development. J. Med. Chem. 2014, 57, 1531-1542 (hereinafter "McGuigan et al. 2014").
Briefly, 5.0 mg of the phosphonodiamidate ProPAgen 9b was dissolved in a mixture of 0.05 mL of DMSO and 0.15 mL D2O. After recording the first ^31P NMR data, 0.3 mL human serum (Merck Life Sciences) was added and monitored by NMR. The experiment was run on NMR ^31P mode and scanned every half an hour for 7.5 h. The incubation temperature was 37°C. Recorded data were processed and analysed with Bruker Topspin 2.1 software.
ProPAgen 9b was incubated with human serum at 37 °C for 7.5 h and monitored by ^31P NMR spectroscopy. […]

[2] = test system: T24 urinary bladder carcinoma cells; assay: Europium-based (DELFIA) cytotoxicity assay: lysis of drug-sensitized T24 cells by expanded Vγ9/Vδ2 T cells; format: cell-based, Human; settings: 10 nM ProPAgen, 2 h pretreatment, effector:target 80:1, compared with 10 µM Zoledronate
Experimental: Human T24 urinary bladder carcinoma cell lines were cultured in PBS for 2 h at 37°C/5% CO2 without ProPAgens (i.e. untreated), containing 10 µM zoledronate (i.e. the clinically used small molecule drug) or the indicated HMBP phosphonodiamidate ProPAgens of the present invention, i.e. ProPAgen 9d at a concentration of 10nM, and ProPAgen 14d at a concentration of 10nM. A positive control for cell death (target cells incubated with 10% v/v DELFIA lysis buffer) and media-only treated control (no drug) were also included. The cells were then washed 3 times at 600 x g for 5 min in PBS to remove any excess drug and incubated in PBS with BATDA labelling agent (used at 1µl per ml) for 20 min at 37°C as before.
In the meantime, ex vivo expanded Vy9/V62 T cells, i.e. Vy9/V62 T cells that have been expanded with 5µM Zoledronate and 100U/ml IL2 over a period of 14 days, were thawed, counted and resuspended to a cell concentration of 4 x 10^6 cells/ml. […]
The level of killing of T24 cells was then measured via time-resolved fluorescence using a PHERAstar microplate reader (BMG Labtech). Specific lysis (% killing of T24 cells) was calculated as follows: [(experimental release - spontaneous release)/(maximal release - spontaneous release)] x 100. The data were processed and analyzed using Microsoft Excel and GraphPad Prism v9 software. […]

CD8^+ T cells = assay: Activation of CD8+ T cells in PBMC overnight cultures (CD69/CD25, flow cytometry); format: cell-based, human; settings: for concentration without CD8+ T cell activation relative to Vγ9/Vδ2 T-cell activation EC50: 1 µM versus EC50; for activation of CD8+ T cells: up to a concentration of 1 µM, overnight PBMC culture
Experimental: as §1
Like peripheral blood γδ T-cells, peripheral blood CD8^+ T-cells lack appreciable levels of surface CD69 or CD25 under steady state conditions, but upon T-cell receptor (TCR) stimulation upregulate both T-cell activation markers within 72 hours. PAg responsive CD8 T-cells were then distinguished by TCR CD8 expression and assessed for the upregulation CD69 and CD25.

In the case of C/C(=C\COP(=O)(O)OP(=O)(O)O)CO [HMBPP, (E)-4-hydroxy-3-methylbut-2-enyl pyrophosphate, reference compound], the EC50 (Vγ9/Vδ2 T cells) is given as 0.06 to 0.5 nM and the EC50 (human Vγ9/Vδ2^+ T cells) is given as 181 nM.
Work on COC(=O)[C@H](C)NP(=O)(N[C@@H](C)C(=O)OC)C(F)(F)C/C=C(\C)CO [ProPAgen 9a, Dimethyl 2,2'-((((E)-1,1-difluoro-5-hydroxy-4-methylpent-3-en-1-yl)phosphor-yl)bis(azanediyl))(2S,2'S)-dipropionate] yielded an EC50 (human Vγ9/Vδ2^+ T cells) of 191 nM.
In the case of C/C(=C\CC(F)(F)P(=O)(N[C@@H](C)C(=O)OC(C)C)N[C@@H](C)C(=O)OC(C)C)CO [ProPAgen 9b, Diisopropyl 2,2'-((((E)-1,1-difluoro-5-hydroxy-4-methylpent-3-en-1-yl)phosphor-yl)bis-(azanediyl))(2S,2'S)-dipropionate], the “time to appearance of three new 31P NMR peaks (metabolite 17)” value (carboxypeptidase Y; Trizma buffer pH 7.4) is reported as at most 0.5 h, the “31P NMR peaks of parent prodrug after incubation” value (carboxypeptidase Y; within 6.5 h) is reported as “those of 9b were the minor” and the half-life [1] is reported as over 7.5 h. The EC50 (human Vγ9/Vδ2^+ T cells; Homo sapiens, T-cell) was 167 nM.
C/C(=C\CC(F)(F)P(=O)(N[C@@H](C)C(=O)OC(C)(C)C)N[C@@H](C)C(=O)OC(C)(C)C)CO [ProPAgen 9c, Di-tert-butyl 2,2'-((((E)-1,1-difluoro-5-hydroxy-4-methylpent-3-en-1-yl)phosphoryl)bis(azanediyl))(2S,2'S)-dipropionate] showed an EC50 (human Vγ9/Vδ2^+ T cells) of 1500 nM.
With C/C(=C\CC(F)(F)P(=O)(N[C@@H](C)C(=O)OCc1ccccc1)N[C@@H](C)C(=O)OCc1ccccc1)CO [ProPAgen 9d, Dibenzyl 2,2'-((((E)-1,1-difluoro-5-hydroxy-4-methylpent-3-en-1-yl)phosphoryl)-bis(azanediyl))(2S,2'S)-dipropionate] the “sensitizing effects (specific lysis of T24 cells by Vγ9/Vδ2 T-cells)” value [2] was “much more potent”, the “concentration without CD8+ T cell activation relative to Vγ9/Vδ2 T-cell activation EC50” value (CD8^+ T cells) was “approx. 100,000 times” and the “activation of CD8+ T cells” value (CD8^+ T cells) was “did not exhibit activation”. For the same molecule, the “activation of Vγ9/Vδ2 T cells at the highest concentration studied” value (human Vγ9/Vδ2^+ T cells) was “less than that achieved with 10 µM” and the “activation of Vγ9/Vδ2 T cells (rank in words)” value (human Vγ9/Vδ2^+ T cells) was “most potent activation”.
Molecule C/C(=C\CCP(=O)(N[C@@H](C)C(=O)OC(C)C)N[C@@H](C)C(=O)OC(C)C)CO [ProPAgen 14b, Diisopropyl 2,2'-((((E)-5-hydroxy-4-methylpent-3-en-1-yl)phosphoryl)bis(az-anediyl))-(2S,2'S)-dipropionate] has an EC50 (human Vγ9/Vδ2^+ T cells) of 87 nM.
In the case of C/C(=C\CCP(=O)(N[C@@H](C)C(=O)OC(C)(C)C)N[C@@H](C)C(=O)OC(C)(C)C)CO [ProPAgen 14c, Di-tert-butyl 2,2'-((((E)-5-hydroxy-4-methylpent-3-en-1-yl)phosphoryl)bis(az-ane-diyl))-(2S,2'S)-dipropionate], the EC50 (human Vγ9/Vδ2^+ T cells) is reported as 6100 nM.
For C/C(=C\CCP(=O)(N[C@@H](C)C(=O)OCc1ccccc1)N[C@@H](C)C(=O)OCc1ccccc1)CO [ProPAgen 14d, Dibenzyl 2,2'-((((E)-5-hydroxy-4-methylpent-3-en-1-yl)phosphoryl)bis(azane-diyl))-(2S, 2'S)-dipropionate], the “sensitizing effects (specific lysis of T24 cells by Vγ9/Vδ2 T-cells)” value [2] was “much more potent”, the “concentration without CD8+ T cell activation relative to Vγ9/Vδ2 T-cell activation EC50” value (CD8^+ T cells) was “approx. 100,000 times” and the “activation of CD8+ T cells” value (CD8^+ T cells) was “did not exhibit activation”. The “activation of Vγ9/Vδ2 T cells at the highest concentration studied” value (human Vγ9/Vδ2^+ T cells) was “less than that achieved with 10 µM” and the “activation of Vγ9/Vδ2 T cells (rank in words)” value (human Vγ9/Vδ2^+ T cells) was “most potent activation”.
For O=P(O)(O)C(O)(Cn1ccnc1)P(=O)(O)O [zoledronate, reference compound], the EC50 (Vγ9/Vδ2 T cells) is listed as 3 to 500 nM and the EC50 (human Vγ9/Vδ2^+ T cells; Homo sapiens, T-cell) is listed as 18500 nM.
